Test results taken from patent publication US20260226054A1, “CRYSTAL FORM AND AMORPHOUS SUBSTANCE OF INDOLINE SPIRO COMPOUND, AND PREPARATION METHOD THEREFOR AND USE THEREOF” (CHANGCHUN GENESCIENCE PHARMACEUTICAL CO., LTD., priority 2022, published 2026).
Where two headings read alike, the source gives them in different places.

Assays:
Type in all cases: physicochemical
[1] = Stability Test 1 (80° C., lighting, 25° C./60% RH, 40° C./75% RH; HPLC)
Experimental: • Chromatographic conditions: • Chromatographic column: C18 column; • Running time: 60 min; • UV detector: 210 nm; • Flow rate: 1.0 mL/min; • Injection volume: 5 μL.
A certain amount of crystals and amorphous raw materials were weighed and placed in liquid phase vials, and a total of 5 parts were prepared. The 5 parts were respectively placed under 80° C. (opened), 25° C./60% RH (opened), and 40° C./75% RH (opened) and in a stable lighting chamber (closed, 5000±500 Lx), and the stability under lighting for 10 days, 80° C. 1 day, and the chemical stability under 25° C. and 60% RH and under 40° C. and 75% RH for 1 week were determined by liquid phase, and the XRPD of the solid was determined.

[2] = Solubility test of amorphous substance (room temperature); settings: read-out: Roughly measured solubility
Experimental: About 10 mg of amorphous substance was weighted and placed into an 8 mL glass bottle, and a solvent was gradually added at room temperature. 5 μL of solvent was added each time until all the solids were dissolved, and if 8 mL of solvent was added and the solids were not dissolved, the solvent addition was stopped. Table 1. Test results of solubility of amorphous substance of compound represented by Formula (1) (room temperature)

[3] = Dynamic vapor sorption (DVS) hygroscopicity
Experimental: The sample was analyzed through Intrinsic DVS ([…]). The amount of test sample was about 20-30 mg. The temperature of a test room was controlled between 25±1° C., the relative humidity increased from 0% to 90% and then decreased to 0% at a rate of 10%/h, and mass data was recorded every 20 s.
The DVS curve was acquired from DVS Intrinsic through an SMS (Surface Measurement Systems). The relative humidity at 25° C. was calibrated according to deliquescent points of LiCl, Mg(NO3)2 and KCl.

[4] = 25° C., 60% RH (opened), 1 week
[5] = 40° C., 75% RH (opened), 1 week
[6] = Lighting (closed, 5000±500 Lx), 10 Days

Degradation (%) [1, 4]: 0.01% | Purity (%) [1, 4]: 99.27% | Degradation (%) [1, 5]: 0.03% | Purity (%) [1, 5]: 99.25% | Degradation (%) ([1]; 80° C. (opened), 1 Day): 0.18% | Purity (%) ([1]; 80° C. (opened), 1 Day): 99.10% | Purity (%) ([1]; Initial): 99.28% | Degradation (%) [1, 6]: 1.02% | Purity (%) [1, 6]: 98.26% | solubility ([2]; organic solvent or mixture, thermodynamic from solid, 1,4-Dioxane): > 760 mg/mL | solubility ([2]; organic solvent or mixture, thermodynamic from solid, Acetone): > 520 mg/mL | solubility ([2]; organic solvent or mixture, thermodynamic from solid, Acetonitrile): > 587 mg/mL | solubility ([2]; organic solvent or mixture, thermodynamic from solid, Anisole): > 510 mg/mL | solubility ([2]; organic solvent or mixture, thermodynamic from solid, Butanone): > 700 mg/mL | solubility ([2]; organic solvent or mixture, thermodynamic from solid, Cyclohexane): < 1.2 mg/mL | solubility ([2]; organic solvent or mixture, thermodynamic from solid, Dichloromethane): > 798 mg/mL | solubility ([2]; organic solvent or mixture, thermodynamic from solid, Dimethyl sulfoxide): > 450 mg/mL | solubility ([2]; organic solvent or mixture, thermodynamic from solid, Ethanol): > 480 mg/mL | solubility ([2]; organic solvent or mixture, thermodynamic from solid, Ethyl acetate): > 600 mg/mL | solubility ([2]; organic solvent or mixture, thermodynamic from solid, Ethyl formate): > 405 mg/mL | solubility ([2]; organic solvent or mixture, thermodynamic from solid, Isopropanol): > 432 mg/mL | solubility ([2]; organic solvent or mixture, thermodynamic from solid, Isopropyl acetate): > 643 mg/mL | solubility ([2]; organic solvent or mixture, thermodynamic from solid, Methanol): > 725 mg/mL | solubility ([2]; organic solvent or mixture, thermodynamic from solid, Methyl isobutyl ketone): > 400 mg/mL | solubility ([2]; organic solvent or mixture, thermodynamic from solid, Methyl tert-butyl ether): > 70 mg/mL | solubility ([2]; organic solvent or mixture, thermodynamic from solid, N-heptane): < 1.3 mg/mL | solubility ([2]; organic solvent or mixture, thermodynamic from solid, N-hexane): < 1.2 mg/mL | solubility ([2]; organic solvent or mixture, thermodynamic from solid, N-propanol): > 460 mg/mL | solubility ([2]; organic solvent or mixture, thermodynamic from solid, Tetrahydrofuran): > 553 mg/mL | solubility ([2]; organic solvent or mixture, thermodynamic from solid, Toluene): > 473 mg/mL | solubility ([2]; thermodynamic from solid, Water): < 1.3 mg/mL | Hygroscopicity (DVS) ([3]; 80% humidity, 25° C.): slightly hygroscopic
Structure (SMILES): CC(C)C(=O)O[C@@H](C)OC(=O)NC(C)(C)C(=O)N[C@H](COCc1ccccc1)C(=O)N1CCC2(CC1)CN(S(C)(=O)=O)c1ccccc12 [amorphous substance, (4R,11R)-7,7-dimethyl-4-(1-(methylsulfonyl)spiro[indoldoline-3,4′-piperidine]-1′-carbonyl)-6,9-dioxo-1-phenyl-2,10-dioxa-5,8-diazadodecane-11-ylisobutyrate]
Solid form by XRPD before and after DVS test ([3]; XRPD before vs after DVS): the morphology of the solid did not change
